The term Ki denotes the dissociation constant of the complex between target and ligand, obtained from inhibition or displacement.

Sequence of Dual specificity protein phosphatase 3 (P51452 whole entry): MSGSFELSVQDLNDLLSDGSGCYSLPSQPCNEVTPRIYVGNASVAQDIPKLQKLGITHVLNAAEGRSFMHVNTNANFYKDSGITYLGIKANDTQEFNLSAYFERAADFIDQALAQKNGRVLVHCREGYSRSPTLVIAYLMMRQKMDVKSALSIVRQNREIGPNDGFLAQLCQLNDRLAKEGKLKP

The target in one experiment is Receptor-type tyrosine-protein phosphatase F (Homo sapiens, UniProt P10586). In words: Inhibition of human LAR.
Sequence of Receptor-type tyrosine-protein phosphatase F (P10586 whole entry): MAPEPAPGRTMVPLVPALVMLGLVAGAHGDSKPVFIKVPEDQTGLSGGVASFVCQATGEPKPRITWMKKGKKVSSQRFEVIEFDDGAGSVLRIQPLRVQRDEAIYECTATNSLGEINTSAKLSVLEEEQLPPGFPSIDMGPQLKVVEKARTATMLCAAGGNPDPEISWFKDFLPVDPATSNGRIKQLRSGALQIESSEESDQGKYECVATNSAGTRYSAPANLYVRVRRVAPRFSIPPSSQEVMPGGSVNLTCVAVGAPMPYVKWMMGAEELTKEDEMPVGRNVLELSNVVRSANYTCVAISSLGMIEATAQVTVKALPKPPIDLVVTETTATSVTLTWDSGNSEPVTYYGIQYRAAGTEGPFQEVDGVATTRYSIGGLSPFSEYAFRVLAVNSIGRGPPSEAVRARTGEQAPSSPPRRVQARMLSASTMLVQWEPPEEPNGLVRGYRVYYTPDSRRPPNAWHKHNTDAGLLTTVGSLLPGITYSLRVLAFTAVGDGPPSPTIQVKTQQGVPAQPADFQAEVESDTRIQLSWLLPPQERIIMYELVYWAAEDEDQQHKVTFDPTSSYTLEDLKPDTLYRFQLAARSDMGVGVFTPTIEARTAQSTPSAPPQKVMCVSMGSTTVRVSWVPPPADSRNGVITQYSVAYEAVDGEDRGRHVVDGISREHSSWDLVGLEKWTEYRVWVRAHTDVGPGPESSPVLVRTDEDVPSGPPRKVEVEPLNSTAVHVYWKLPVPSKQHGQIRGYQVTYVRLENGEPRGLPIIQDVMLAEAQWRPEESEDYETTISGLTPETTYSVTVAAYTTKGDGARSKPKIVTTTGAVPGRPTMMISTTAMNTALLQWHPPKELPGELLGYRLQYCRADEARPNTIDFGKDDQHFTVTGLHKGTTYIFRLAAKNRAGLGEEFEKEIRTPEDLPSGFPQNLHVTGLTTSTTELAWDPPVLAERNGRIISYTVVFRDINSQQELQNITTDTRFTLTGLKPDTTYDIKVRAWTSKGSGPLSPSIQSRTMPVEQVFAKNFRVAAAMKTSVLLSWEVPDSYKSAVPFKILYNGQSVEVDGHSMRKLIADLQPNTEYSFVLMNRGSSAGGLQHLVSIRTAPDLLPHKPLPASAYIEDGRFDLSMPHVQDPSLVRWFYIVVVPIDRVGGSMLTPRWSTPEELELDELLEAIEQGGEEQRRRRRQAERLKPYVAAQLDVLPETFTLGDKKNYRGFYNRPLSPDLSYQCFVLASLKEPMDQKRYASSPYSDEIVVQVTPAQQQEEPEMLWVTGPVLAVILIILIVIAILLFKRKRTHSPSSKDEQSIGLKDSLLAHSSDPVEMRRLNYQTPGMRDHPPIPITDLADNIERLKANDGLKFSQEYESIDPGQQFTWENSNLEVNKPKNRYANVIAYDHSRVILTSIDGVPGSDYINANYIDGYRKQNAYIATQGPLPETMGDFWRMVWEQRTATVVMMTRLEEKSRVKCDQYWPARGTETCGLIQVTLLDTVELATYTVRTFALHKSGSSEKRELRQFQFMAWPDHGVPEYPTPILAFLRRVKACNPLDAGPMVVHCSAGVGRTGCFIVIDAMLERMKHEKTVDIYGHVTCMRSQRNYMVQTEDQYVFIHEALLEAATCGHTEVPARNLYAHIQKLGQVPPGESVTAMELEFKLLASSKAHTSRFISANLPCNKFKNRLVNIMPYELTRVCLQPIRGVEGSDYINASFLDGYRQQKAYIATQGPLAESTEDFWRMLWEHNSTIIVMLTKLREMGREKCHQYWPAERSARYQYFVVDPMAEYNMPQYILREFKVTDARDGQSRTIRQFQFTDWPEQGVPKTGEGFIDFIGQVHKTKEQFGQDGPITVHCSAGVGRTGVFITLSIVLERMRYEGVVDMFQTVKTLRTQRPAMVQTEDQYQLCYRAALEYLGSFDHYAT
Details: not given
`O=C(Nc1cc(C(F)(F)F)c(Br)c(C(F)(F)F)c1)c1ccc(C(F)(F)P(=O)(O)O)cc1`: the inhibition constant Ki was more than 100 µM.

For a further experiment, the target named is T1, Low molecular weight protein-tyrosine phosphatase A (Mycobacterium tuberculosis, UniProt P9WIA1).
T1 sequence (P9WIA1 whole entry): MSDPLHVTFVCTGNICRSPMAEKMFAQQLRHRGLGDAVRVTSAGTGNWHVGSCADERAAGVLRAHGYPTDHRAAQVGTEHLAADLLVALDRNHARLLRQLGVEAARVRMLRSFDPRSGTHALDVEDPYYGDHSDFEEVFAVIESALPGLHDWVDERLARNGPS
In words: Inhibition of Mycobacterium tuberculosis PtpA.
Details: not given
`O=C(Nc1nc2ccccc2[nH]1)c1ccc(C(F)(F)P(=O)(O)O)cc1`: the inhibition constant Ki entry is recorded as “ND(Insoluble)”.

Staying with this experiment, now noted: read-out: Ki.
Consider `O=P(O)(O)C(F)(F)c1ccc(Br)cc1`, for which the inhibition constant Ki is 92.3 µM. For `CC(C)NC(=O)c1ccc(C(F)(F)P(=O)(O)O)cc1`, the inhibition constant Ki is more than 100 µM. Same read-out and setting: the value for `O=C(Nc1ccccc1C(F)(F)F)c1ccc(C(F)(F)P(=O)(O)O)cc1` was 54.8 µM; that for `O=C(Nc1ccc(F)cc1)c1ccc(C(F)(F)P(=O)(O)O)cc1` was 22.7 µM.

Take `CN(C(=O)c1ccc(C(F)(F)P(=O)(O)O)cc1)c1ccccc1`: the Ki was more than 100 µM. On to `O=P(O)(O)C(F)(F)c1ccc(CNc2ccccc2)cc1`, for which the inhibition constant (Ki) was more than 100 µM. Still for that read-out and setting: the value for `O=C(Nc1ccc(Cl)c(C(F)(F)F)c1)c1ccc(C(F)(F)P(=O)(O)O)cc1` was 6 µM; that for `O=C(Nc1ccc(Br)c(C(F)(F)F)c1)c1ccc(C(F)(F)P(=O)(O)O)cc1` was 4.9 µM.

Regarding `O=C(Nc1ccc(C(F)(F)P(=O)(O)O)cc1)c1ccccc1`, the Ki amounted to 65.5 µM. On the same count and under the same terms, the value for `O=C(Nc1ccccc1)c1cccc(C(F)(F)P(=O)(O)O)c1` was more than 100 µM; that for `O=P(O)(O)C(F)(F)c1ccc2c(cnn2Cc2ccccc2)c1` was more than 100 µM; that for `O=P(O)(O)C(F)(F)c1ccc2nn(Cc3ccccc3)cc2c1` was 84.4 µM. Still for that read-out and setting: the value for `CCN1CCC(NC(=O)c2ccc(C(F)(F)P(=O)(O)O)cc2)CC1` was more than 100 µM; that for `O=P(O)(O)C(F)(F)c1ccc(COc2ccccc2)cc1` was more than 100 µM. Still for that read-out and setting: then `CNC(=O)c1ccc(C(F)(F)P(=O)(O)O)cc1`, with more than 100 µM; and `O=C(NCC1CCCC1)c1ccc(C(F)(F)P(=O)(O)O)cc1`, with more than 100 µM. With `O=C(NCc1ccccc1)c1ccc(C(F)(F)P(=O)(O)O)cc1`, the inhibitory constant (Ki) came out at 43.1 µM. Still for that read-out and setting: then `O=C(Nc1nccs1)c1ccc(C(F)(F)P(=O)(O)O)cc1`, with 33 µM. The same measure, in the same setting: the value for `O=C(Nc1ccccc1)c1ccc(C(F)(F)P(=O)(O)O)cc1` was 24 µM; that for `O=C(Nc1ccccc1Br)c1ccc(C(F)(F)P(=O)(O)O)cc1` was 44.6 µM. `O=C(Nc1cccc(F)c1)c1ccc(C(F)(F)P(=O)(O)O)cc1`: the inhibitory constant (Ki) stood at 41.8 µM. Take `O=C(Nc1cccc(Cl)c1)c1ccc(C(F)(F)P(=O)(O)O)cc1`: the Ki was 34.9 µM. The same measure, in the same setting: the value for `O=C(Nc1cccc(Br)c1)c1ccc(C(F)(F)P(=O)(O)O)cc1` was 18.2 µM; that for `O=C(Nc1cccc(C(F)(F)F)c1)c1ccc(C(F)(F)P(=O)(O)O)cc1` was 10.7 µM. Still for that read-out and setting: then `O=C(Nc1ccc(C(F)(F)F)cc1)c1ccc(C(F)(F)P(=O)(O)O)cc1`, with 18.5 µM. In the case of `O=C(Nc1ccc(Cl)cc1)c1ccc(C(F)(F)P(=O)(O)O)cc1`, the inhibition constant (Ki) amounted to 16.8 µM. The same measure, in the same setting: then `O=C(Nc1ccc(Br)cc1)c1ccc(C(F)(F)P(=O)(O)O)cc1`, with 10.3 µM; and `O=C(Nc1ccc(F)c(C(F)(F)F)c1)c1ccc(C(F)(F)P(=O)(O)O)cc1`, with 11.4 µM; and `O=C(O)c1ccc(C(F)(F)P(=O)(O)O)cc1`, with more than 100 µM. Same read-out and setting: then `O=C(Cc1ccc(C(F)(F)P(=O)(O)O)cc1)Nc1ccccc1`, with more than 100 µM; and `O=C(Nc1cc(C(F)(F)F)cc(C(F)(F)F)c1)c1ccc(C(F)(F)P(=O)(O)O)cc1`, with 3.3 µM; and `O=C(Nc1cc(C(F)(F)F)c(Br)c(C(F)(F)F)c1)c1ccc(C(F)(F)P(=O)(O)O)cc1`, with 1.4 µM. As to `O=[N+]([O-])c1ccc(C(F)(F)P(=O)(O)O)cc1`, the Ki was 75.4 µM.

Turning to `Cn1cc(-c2ccc(C(F)(F)P(=O)(O)O)cc2)cn1`, the inhibition constant Ki is more than 100 µM. Same read-out and setting: then `O=C(NC1CCCC1)c1ccc(C(F)(F)P(=O)(O)O)cc1`, with 72.4 µM; and `O=C(NCCc1ccccc1)c1ccc(C(F)(F)P(=O)(O)O)cc1`, with 61.6 µM. On the same count and under the same terms, then `O=C(NCC(F)(F)F)c1ccc(C(F)(F)P(=O)(O)O)cc1`, with 49.7 µM. Take `O=P(O)(O)C(F)(F)c1ccc(S(=O)(=O)Nc2ccccc2)cc1`: the Ki is more than 100 µM. The same measure, in the same setting: then `O=C(Nc1ccc(C(F)(F)P(=O)(O)O)cc1)Nc1cc(C(F)(F)F)cc(C(F)(F)F)c1`, with 3.1 µM; and `O=C(Nc1ccccc1F)c1ccc(C(F)(F)P(=O)(O)O)cc1`, with more than 100 µM; and `O=C(Nc1ccccc1Cl)c1ccc(C(F)(F)P(=O)(O)O)cc1`, with 68 µM. On the same count and under the same terms, the value for `O=P(O)(O)C(F)(F)c1ccc(-c2ccccc2)cc1` was more than 100 µM.

The target of the next experiment is T2, Low molecular weight phosphotyrosine protein phosphatase (Homo sapiens, UniProt P24666).
T2 sequence (P24666 whole entry): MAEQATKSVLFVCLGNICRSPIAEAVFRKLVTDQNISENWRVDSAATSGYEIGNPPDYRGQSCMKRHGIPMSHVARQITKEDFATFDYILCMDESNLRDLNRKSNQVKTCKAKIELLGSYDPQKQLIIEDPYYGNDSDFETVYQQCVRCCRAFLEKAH
In words: Inhibition of human HCPTPA.
Details: not given
As to `O=C(Nc1cc(C(F)(F)F)c(Br)c(C(F)(F)F)c1)c1ccc(C(F)(F)P(=O)(O)O)cc1`, the Ki amounted to 14.8 µM.

The target of another experiment is T3, Receptor-type tyrosine-protein phosphatase C (Homo sapiens, UniProt P08575).
T3 sequence (P08575 whole entry): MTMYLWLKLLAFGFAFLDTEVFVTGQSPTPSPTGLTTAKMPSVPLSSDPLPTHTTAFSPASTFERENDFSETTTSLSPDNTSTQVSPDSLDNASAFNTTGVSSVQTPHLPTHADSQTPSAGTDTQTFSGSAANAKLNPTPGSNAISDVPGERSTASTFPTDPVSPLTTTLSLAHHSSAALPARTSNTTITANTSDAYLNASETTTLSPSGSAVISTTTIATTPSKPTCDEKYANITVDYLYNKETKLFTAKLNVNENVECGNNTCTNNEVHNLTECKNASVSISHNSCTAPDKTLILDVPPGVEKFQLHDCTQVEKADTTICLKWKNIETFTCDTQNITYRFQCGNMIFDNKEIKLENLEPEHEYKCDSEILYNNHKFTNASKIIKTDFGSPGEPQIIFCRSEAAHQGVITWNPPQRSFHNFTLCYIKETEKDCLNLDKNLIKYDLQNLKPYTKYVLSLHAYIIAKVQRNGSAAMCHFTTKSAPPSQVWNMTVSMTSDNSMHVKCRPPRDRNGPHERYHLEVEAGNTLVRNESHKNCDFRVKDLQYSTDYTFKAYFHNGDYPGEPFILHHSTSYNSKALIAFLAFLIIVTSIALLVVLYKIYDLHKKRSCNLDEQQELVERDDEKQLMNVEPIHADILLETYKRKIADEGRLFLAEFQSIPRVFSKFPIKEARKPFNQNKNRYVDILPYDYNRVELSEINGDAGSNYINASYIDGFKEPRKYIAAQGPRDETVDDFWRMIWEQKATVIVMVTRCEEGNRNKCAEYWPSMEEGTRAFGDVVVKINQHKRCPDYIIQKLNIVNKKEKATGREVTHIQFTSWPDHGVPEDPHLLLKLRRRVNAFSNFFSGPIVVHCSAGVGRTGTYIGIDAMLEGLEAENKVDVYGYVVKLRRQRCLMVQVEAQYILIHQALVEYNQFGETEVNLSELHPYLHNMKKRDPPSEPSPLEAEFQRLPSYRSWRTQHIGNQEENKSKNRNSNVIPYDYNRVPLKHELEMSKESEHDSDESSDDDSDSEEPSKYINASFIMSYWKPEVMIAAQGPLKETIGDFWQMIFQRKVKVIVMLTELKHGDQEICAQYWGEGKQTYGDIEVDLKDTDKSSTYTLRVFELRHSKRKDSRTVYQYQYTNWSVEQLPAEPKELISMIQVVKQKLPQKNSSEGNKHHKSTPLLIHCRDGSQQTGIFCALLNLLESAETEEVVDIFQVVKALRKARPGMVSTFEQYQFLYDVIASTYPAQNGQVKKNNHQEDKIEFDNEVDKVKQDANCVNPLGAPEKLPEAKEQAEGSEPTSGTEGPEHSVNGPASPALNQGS
Description: Inhibition of human CD45.
Details: not given
Molecule `O=C(Nc1cc(C(F)(F)F)c(Br)c(C(F)(F)F)c1)c1ccc(C(F)(F)P(=O)(O)O)cc1` displayed an inhibition constant (Ki) of more than 100 µM.

The next experiment concerns the target T4, Tyrosine-protein phosphatase non-receptor type 2 (Homo sapiens, UniProt P17706).
T4 sequence (P17706 whole entry): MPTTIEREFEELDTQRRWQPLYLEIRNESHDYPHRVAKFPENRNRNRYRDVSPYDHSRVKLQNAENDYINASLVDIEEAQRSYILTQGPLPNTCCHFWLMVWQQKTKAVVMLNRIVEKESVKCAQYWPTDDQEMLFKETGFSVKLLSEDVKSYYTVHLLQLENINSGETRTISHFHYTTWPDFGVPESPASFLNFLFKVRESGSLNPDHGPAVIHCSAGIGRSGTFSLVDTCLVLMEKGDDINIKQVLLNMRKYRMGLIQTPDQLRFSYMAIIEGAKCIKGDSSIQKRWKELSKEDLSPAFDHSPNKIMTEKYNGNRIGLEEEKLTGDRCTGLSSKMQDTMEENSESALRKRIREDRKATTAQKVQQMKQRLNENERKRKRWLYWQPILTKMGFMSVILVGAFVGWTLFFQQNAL
In words: Inhibition of human TCPTP.
Details: not given
In turn, `O=C(Nc1cc(C(F)(F)F)c(Br)c(C(F)(F)F)c1)c1ccc(C(F)(F)P(=O)(O)O)cc1` displayed an inhibition constant Ki of more than 100 µM.

A further experiment has as its target Dual specificity protein phosphatase 3 (Homo sapiens, UniProt P51452). In words: Inhibition of human VHR.
Details: not given
In turn, `O=C(Nc1cc(C(F)(F)F)c(Br)c(C(F)(F)F)c1)c1ccc(C(F)(F)P(=O)(O)O)cc1` showed a Ki of more than 100 µM.

A further experiment concerns the target T5, Tyrosine-protein phosphatase non-receptor type 1 (Homo sapiens, UniProt P18031).
T5 sequence (P18031 whole entry): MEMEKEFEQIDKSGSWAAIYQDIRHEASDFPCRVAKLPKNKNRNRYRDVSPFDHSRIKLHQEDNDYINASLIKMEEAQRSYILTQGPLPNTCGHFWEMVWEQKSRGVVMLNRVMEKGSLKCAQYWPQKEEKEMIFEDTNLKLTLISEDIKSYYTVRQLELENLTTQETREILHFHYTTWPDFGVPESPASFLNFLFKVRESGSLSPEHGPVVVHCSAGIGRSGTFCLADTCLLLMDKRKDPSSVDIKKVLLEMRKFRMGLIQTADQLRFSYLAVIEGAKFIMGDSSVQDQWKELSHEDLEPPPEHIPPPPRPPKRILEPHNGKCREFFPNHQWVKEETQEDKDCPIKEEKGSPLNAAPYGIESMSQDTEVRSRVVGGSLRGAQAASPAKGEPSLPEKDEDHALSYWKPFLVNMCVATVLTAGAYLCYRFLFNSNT
Description: Inhibition of human PTP1B.
Details: not given
Take `O=C(Nc1cc(C(F)(F)F)c(Br)c(C(F)(F)F)c1)c1ccc(C(F)(F)P(=O)(O)O)cc1`: the inhibition constant Ki was more than 100 µM.

(Values after ChEMBL document CHEMBL1153717.)
